In brackets after ≈: the same amount, converted by molar mass. Where a SMILES comes first, the peptide text is derived from it.
Columns and labels:
[1] = system: Bacillus subtilis (2597); details: CLSI microdilution, MHB, 37 °C, 20h, OD read-out; at least triplicate
[2] = system: Serratia marcescens (ATCC14756); details: ATCC14756, 20 h
[3] = system: Staphylococcus aureus (ATCC6538#P); details: ATCC6538, 20 h
[4] = system: Bacillus velezensis; details: 20 h
[5] = system: Escherichia coli (JM109); experiment: MIC, CLSI microdilution; format: cell-based; details: MHB, 37 °C, 20h, OD read-out, at least triplicate
Method: Assays were performed according to the CLSI microdilution method. Briefly, the bacterial strains were inoculated and allowed to reach an OD600 of 0.08–0.13 prior to dilution to 10^6 CFU/mL in Mueller-Hinton broth (MHB). A bacterial suspension (50 μL) was then added to each well of a 96-well microplate containing serially diluted peptide solutions (50 μL in MHB) and incubated at 37 °C for 20h. A well containing sterilized medium was used as a sterility control and another well containing no added peptide served as a growth control.

[6] = system: Escherichia coli ATCC25922; details: ATCC25922, 20 h
[7] = system: Burkholderia cenocepacia (K56-2); details: 20 h
[8] = system: Staphylococcus aureus (Newman); details: 20 h
[9] = system: Pseudomonas putida (KT2440); details: 20 h
[10] = system: Bacillus cereus (ATCC11778); details: ATCC11778, 20 h
[11] = system: Actinobacillus pleuropneumoniae (4074); details: 20 h
[12] = system: Burkholderia thailendensis (ATCC700388); details: CLSI microdilution, MHB, 37 °C, 20h, OD read-out; at least triplicate
[13] = system: Bacillus subtilis (PY79); details: PY79, 20 h
[14] = system: Burkholderia cenocepacia (LMG18829); details: LMG18829, 20 h
[15] = system: Burkholderia cenocepacia (CEP0511 Gvar3b); details: CLSI microdilution, MHB, 37 °C, 20h, OD read-out; at least triplicate
[16] = system: Pseudomonas aeruginosa (ATCC33350-Sero-2); details: ATCC33350, 20 h
[17] = system: Pseudomonas fluorescens (MF37); details: 20 h
[18] = system: Burkholderia cenocepacia (J2315); details: 20 h
[19] = system: Bacillus amyloliquefaciens (LMG22478); details: LMG22478, 20 h
[20] = system: Bacillus circulans (LSPQ3543); details: 20 h
[21] = system: Pseudomonas aeruginosa (PA14); details: PA14, 20 h
[22] = system: DPP-IV; design: method as in PMID 18353507; details: cited from earlier work
[23] = system: Burkholderia cenocepacia (LMG19240); details: CLSI microdilution, MHB, 37 °C, 20h, OD read-out; at least triplicate
[24] = relative to PACAP38; cited from earlier work
[25] = system: Escherichia coli (O157 :H7); details: CLSI microdilution, MHB, 37 °C, 20h, OD read-out; at least triplicate

## CC[C@H](C)[C@H](NC(=O)CNC(=O)[C@H](CC(=O)O)NC(=O)[C@H](CO)NC(=O)[C@@H](N)Cc1c[nH]cn1)C(=O)N[C@@H](Cc1ccccc1)C(=O)N[C@H](C(=O)N[C@@H](CC(=O)O)C(=O)N[C@@H](CO)C(=O)N[C@@H](Cc1ccc(O)cc1)C(=O)N[C@@H](CO)C(=O)N[C@@H](CCCNC(=N)N)C(=O)N[C@@H](Cc1ccc(O)cc1)C(=O)N[C@@H](CCCNC(=N)N)C(=O)N[C@@H](CCCCN)C(=O)N[C@@H](CCC(N)=O)C(=O)N[C@@H](CCSC)C(=O)N[C@@H](C)C(=O)N[C@H](C(=O)N[C@@H](C)C(=O)N[C@@H](CCCCN)C(=O)N[C@@H](Cc1ccc(O)cc1)C(=O)N[C@@H](CC(C)C)C(=O)N[C@@H](C)C(=O)N[C@@H](C)C(=O)N[C@H](C(=O)N[C@@H](CC(C)C)C(=O)NCC(=O)N[C@@H](CCCCN)C(=O)N[C@@H](CCCNC(=N)N)C(=O)N[C@@H](Cc1ccc(O)cc1)C(=O)N[C@@H](CCCCN)C(=O)N[C@@H](CCC(N)=O)C(=O)N[C@@H](CCCNC(=N)N)C(=O)N[C@H](C(=O)N[C@@H](CCCCN)C(=O)N[C@@H](CC(N)=O)C(=O)N[C@@H](CCCCN)C(N)=O)C(C)C)C(C)C)C(C)C)[C@@H](C)O [compound 4, [Ala^20]PACAP38] (H-HSDGIFTDSYSRYRKQMAVAKYLAAVLGKRYKQRVKNK-NH2)
[1]
  MIC, Bacillus subtilis (2597): 168 µg/mL (≈ 37.5 µM)
[2]
  MIC, Serratia marcescens (ATCC14756): >200 µg/mL
[3]
  MIC, Staphylococcus aureus (ATCC6538#P): >200 µg/mL
[4]
  MIC, Bacillus velezensis: 61 µg/mL (≈ 13.6 µM)
[5]
  MIC, Escherichia coli (JM109): 28 µg/mL (≈ 6.25 µM)
[6]
  MIC, Escherichia coli ATCC25922: >200 µg/mL
[7]
  MIC, Burkholderia cenocepacia (K56-2): >200 µg/mL
[8]
  MIC, Staphylococcus aureus (Newman): >200 µg/mL
[9]
  MIC, Pseudomonas putida (KT2440): 56 µg/mL (≈ 12.5 µM)
[10]
  MIC, Bacillus cereus (ATCC11778): >200 µg/mL
[11]
  MIC, Actinobacillus pleuropneumoniae: >200 µg/mL
[12]
  MIC, Burkholderia thailendensis (ATCC700388): >200 µg/mL
[13]
  MIC, Bacillus subtilis (PY79): 3 µg/mL (≈ 0.67 µM)
[14]
  MIC, Burkholderia cenocepacia (LMG18829): >200 µg/mL
[15]
  MIC, Burkholderia cenocepacia (CEP0511 Gvar3b): >200 µg/mL
[16]
  MIC, Pseudomonas aeruginosa (ATCC33350-Sero-2): >200 µg/mL
[17]
  MIC, Pseudomonas fluorescens (MF37): 112 µg/mL (≈ 25 µM)
[18]
  MIC, Burkholderia cenocepacia (J2315): 5 µg/mL (≈ 1.12 µM)
[19]
  MIC, Bacillus amyloliquefaciens: 7 µg/mL (≈ 1.56 µM)
[20]
  MIC, Bacillus circulans (LSPQ3543): 47 µg/mL (≈ 10.5 µM)
[21]
  MIC, Pseudomonas aeruginosa (PA14): 112 µg/mL (≈ 25 µM)
[22]
  Metabolic stability against DPP-IV: improved metabolic stability
[23]
  MIC, Burkholderia cenocepacia (LMG19240): >200 µg/mL
[24]
  Metabolic stability in human plasma: improved metabolic stability
[25]
  MIC, Escherichia coli (O157 :H7): 168 µg/mL (≈ 37.5 µM)

— PMC6248945, “Antibacterial properties of the pituitary adenylate cyclase-activating polypeptide: A new human antimicrobial peptide” (PLoS ONE, 2018)
